ChEMBL document CHEMBL5154722, “Identification of new potent anticancer derivatives through simplifying the core structure and modification on their 14- hydroxyl group from oridonin” (Eur J Med Chem, 2022)
Active and inactive are the calls of the source. No cut-off for these calls is given here.

What was measured:
K562 [1] = test: Inhibition of MAPK signaling pathway in human K562 cells assessed as reduction in Raf level measured after 48 hrs by Western blot analysis; type: cell-based; details: dose 25-100 nM, DDE = dose-dependent effect
K562 [2] = test: Antiproliferative activity against human K562 cells assessed as reduction in cell viability incubated for 72 hrs by MTT assay; type: functional, cell-based; details: K562, 72 h
SMMC-7721 = test: Antiproliferative activity against human […] cells assessed as reduction in cell viability incubated for 72 hrs by MTT assay; type: functional, cell-based; details: SMMC-7721, 72 h
SW480 = test: Antiproliferative activity against human SW480 cells assessed as reduction in cell viability incubated for 72 hrs by MTT assay; type: functional, cell-based; details: SW480, 72 h
[3] = Antiproliferative activity against human U-87 MG cells assessed as reduction in cell viability incubated for 72 hrs by MTT assay; type: functional, cell-based, U-87MG ATCC
H22 [4] = test: Antiproliferative activity against mouse H22 cells assessed as reduction in cell viability incubated for 72 hrs by MTT assay; type: functional, cell-based; details: H22, 72 h
[5] = Cytotoxicity against human L02 cells assessed as reduction in cell viability incubated for 72 hrs by MTT assay; type: toxicity, cell-based
K562 [6] = test: Induction of cell cycle arrest in human K562 cells assessed as accumulation of cells at G2 phase at 25 nM measured after 48 hrs by propidium iodide staining-based flow cytometric analysis (reference value: 15.30%); type: functional
K562 [7] = test: Induction of cell cycle arrest in human K562 cells assessed as accumulation of cells at S phase at 25 nM measured after 48 hrs by propidium iodide staining-based flow cytometric analysis (reference value: 37.29%); type: functional
K562 [8] = test: Induction of cell cycle arrest in human K562 cells assessed as downregulation of cyclin B1 measured after 48 hrs by Western blot analysis; type: functional, cell-based; details: dose 25-100 nM, DDE = dose-dependent effect
K562 [9] = test: Induction of apoptosis in human K562 cells assessed as early apoptotic cells at 25 nM measured after 48 hrs by Annexin V-FITC/PI staining based flow cytometry method (reference value: 1.62%); type: functional
K562 [10] = test: Induction of apoptosis in human K562 cells assessed as necrotic cells at 25 nM measured after 48 hrs by Annexin V-FITC/PI staining based flow cytometry method (reference value: 0.44%); type: functional
K562 [11] = test: Induction of apoptosis in human K562 cells assessed as viable cells at 100 nM measured after 48 hrs by Annexin V-FITC/PI staining based flow cytometry method (reference value: 94.41%); type: functional; details: read-out: Activity
K562 [12] = test: Induction of apoptosis in human K562 cells assessed as early apoptotic cells at 100 nM measured after 48 hrs by Annexin V-FITC/PI staining based flow cytometry method (reference value: 1.62%); type: functional
K562 [13] = test: Induction of apoptosis in human K562 cells assessed as late apoptotic cells at 100 nM measured after 48 hrs by Annexin V-FITC/PI staining based flow cytometry method (reference value: 3.53%); type: functional
K562 [14] = test: Induction of apoptosis in human K562 cells assessed as reduction in phosphorylated PI3K level measured after 48 hrs by Western blot analysis; type: functional, cell-based; details: dose 25-100 nM, DDE = dose-dependent effect
K562 [15] = test: Induction of apoptosis in human K562 cells assessed as reduction in phosphorylated mTOR level measured after 48 hrs by Western blot analysis; type: functional, cell-based; details: dose 25-100 nM, DDE = dose-dependent effect
K562 [16] = test: Induction of apoptosis in human K562 cells assessed as decrease in Bcl-2 level at 25 to 100 nM measured after 48 hrs by Western blot analysis; type: functional, cell-based; details: dose 25-100 nM
K562 [17] = test: Induction of apoptosis in human K562 cells assessed as increase in caspase-3 level measured after 48 hrs by Western blot analysis; type: functional, cell-based; details: dose 25-100 nM, DDE = dose-dependent effect
K562 [18] = test: Induction of apoptosis in human K562 cells assessed as increase in caspase-9 level measured after 48 hrs by Western blot analysis; type: functional, cell-based; details: dose 25-100 nM, DDE = dose-dependent effect
H22 [19] = test: Antitumor activity against mouse H22 cells allografted in ICR mouse assessed as reduction in tumor weight at 20 mg/kg, iv administered once a day for 21 days after 7 days of tumor implantation; type: functional; parameters: scale not given: the % may be the effect or the level left; details: time 21 day
[20] = Toxicity in ICR mouse allografted with mouse H22 cells assessed as change in body weight at 10 to 20 mg/kg, iv administered once a day for 21 days after 7 days of tumor implantation measured every two days; type: organism-based; details: in vivo, 504 h, dose 10-20 mg/kg, time 21 day
[21] = Toxicity in ICR mouse allografted with mouse H22 cells assessed as effect on spleen morphology at 10 to 20 mg/kg, iv administered once a day for 21 days after 7 days of tumor implantation by H and E staining method; type: organism-based; details: in vivo, 504 h, dose 10-20 mg/kg, time 21 day
[22] = Toxicity in ICR mouse allografted with mouse H22 cells assessed as effect on lung morphology at 10 to 20 mg/kg, iv administered once a day for 21 days after 7 days of tumor implantation by H and E staining method; type: organism-based; details: in vivo, 504 h, dose 10-20 mg/kg, time 21 day

C=C1C(=O)[C@]23[C@H](OC(=O)/C=C/c4ccncc4)[C@H]1CC[C@H]2[C@]12CCCC(C)(C)[C@H]1[C@H](O)[C@@]3(O)OC2
Activity (K562 [1]): Dde | IC50 (K562 [2]): 0.09 µM | IC50 (SMMC-7721): 0.45 µM | IC50 (SW480): 1.03 µM | IC50 [3]: 0.84 µM | IC50 (H22 [4]): 0.23 µM | IC50 at 72 h [5]: 3.18 µM | Activity (K562 [6]): 22.14% | Activity (K562 [7]): 38.36% | Activity (K562 [8]): Dde | Activity (K562 [9]): 10.6% | Activity (K562 [10]): 0.05% | viability at 0.1 µM (K562 [11]): 33% | Activity (K562 [12]): 42.81% | Activity (K562 [13]): 20.92% | Activity (K562 [14]): Dde | Activity (K562 [15]): Dde | Activity (K562 [16]): Active | Activity (K562 [17]): Dde | Activity (K562 [18]): Dde | Activity (H22 [19]): 78.92% | Activity [20]: Non-Toxic | Activity [21]: Non-Toxic | Activity [22]: Non-Toxic
